Results: PMC8392292 (Biomedicines, 2021)
Where a name gives a salt, the structure may show the parent alone. Read-outs that look alike come from different tables or passages of the source.

What was measured:
SARS-CoV-2 RdRp = SARS-CoV-2 RdRp (Severe acute respiratory syndrome coronavirus 2, UniProt P0DTD1); test: cell-based; type: cell-based; details: for inhibition at 100 µM: read-out: Inhibition % of RdRp Activity at Max. Dose; for Effect on SARS-CoV-2 RdRp activity: without nsp7 and nsp8; for FLuc activity (internal control): compound at the indicated concentrations
[1] = system: SARS-CoV-2 RdRp with nsp7 and nsp8; type: cell-based; details: nsp7 + nsp8 or nsp8-IRES-nsp7 plasmids co-transfected, HEK293T
SARS-CoV-2 = details: cited from earlier work
[2] = […], mean ± standard error of the mean, read-out: IC50 of SARS-CoV-2 RdRp activity
[3] = representative experiment, non-linear regression graph, HEK293T, 15 h, read-out: IC50 of SARS-CoV-2 RdRp activity in the figure
[4] = HEK-293T, max. dose 100 μM, HEK293T, 15 h
[5] = IC50 of SARS-CoV-2 RdRp activity

Row | SMILES | IC50 (SARS-CoV-2 RdRp; [2]) | IC50 (SARS-CoV-2 RdRp; [3]) | inhibition at 100 µM (SARS-CoV-2 RdRp; [4]) | further results
1 | CO[C@H]1/C=C/O[C@@]2(C)Oc3c(C)c(O)c4c(O)c(c(/C=N/N5CCN(C)CC5)c(O)c4c3C2=O)NC(=O)/C(C)=C\C=C\[C@H](C)[C@H](O)[C@@H](C)[C@@H](O)[C@@H](C)[C@H](OC(C)=O)[C@@H]1C [Rifampin, rifampin] | 49.4 ± 4.02 µM | 30.3 µM |  | 
2 | C=C1[C@H](CO)[C@@H](O)C[C@@H]1n1cnc2c(=O)[nH]c(N)nc21 [Entecavir Hydrate, entecavir hydrate] |  |  | 83.1% | 
3 | COc1ccc2cc1Oc1ccc(cc1)C[C@H]1c3c(cc4c(c3Oc3cc5c(cc3OC)CCN(C)[C@@H]5C2)OCO4)CCN1C [Cepharanthine, cepharanthine] |  |  |  | inhibition at 10 µM (SARS-CoV-2 RdRp; HEK-293T, max. dose 10 μM, HEK293T, 15 h): 5.84%; IC50 (SARS-CoV-2 RdRp; [5]): > 10 µM; Effect on SARS-CoV-2 RdRp activity (SARS-CoV-2 RdRp; HEK293T): did not affect; Effect on SARS-CoV-2 RdRp activity (SARS-CoV-2 RdRp; HEK293T, listed as cepharanthine): did not display any inhibitory effect; Effect on SARS-CoV-2 RdRp activity with nsp7 and nsp8 [1]: did not affect; Effect on SARS-CoV-2 RdRp activity with nsp7 and nsp8 ([1]; listed as cepharanthine): did not display any inhibitory effect
4 | Cc1cn([C@@H]2C[C@@H](O)[C@H](CO)O2)c(=O)[nH]c1=O [Telbivudine, telbivudine] | 45.9 ± 3.86 µM | 39.6 µM | 76.9% | 
5 | Cl.O[C@H]1[C@H]2c3cc4c(cc3CN3CCC(=C[C@@H]1O)[C@H]23)OCO4 [Lycorine, lycorine hydrochloride] | 1.47 ± 0.033 µM | 1.34 µM |  | FLuc activity (internal control) (SARS-CoV-2 RdRp; HEK293T): remained unchanged; IC50 (SARS-CoV-2): 0.878 ± 0.022 µM
6 | CC(C)(C)C(=O)OCOP(=O)(COCCn1cnc2c(N)ncnc21)OCOC(=O)C(C)(C)C [Adefovir Dipivoxil, adefovir dipivoxil] | 3.78 ± 0.866 µM | 3.92 µM |  | 
7 | N=C(N)/N=C(\N)N1CCOCC1 [Moroxydine, moroxydine HCl] | 48.9 ± 14.4 µM | 37.1 µM | 76.5% | 
8 | Nc1nc(=O)n([C@@H]2CS[C@H](CO)O2)cc1F [Emtricitabine, emtricitabine] |  |  |  | inhibition at 100 µM (SARS-CoV-2 RdRp; HEK-293T): 88.2%; IC50 (SARS-CoV-2 RdRp; [5]): 15.4 ± 3.6 µM; IC50 (SARS-CoV-2 RdRp; IC50 of SARS-CoV-2 RdRp activity in the figure): 13.8 µM
9 | CCC(CC)COC(=O)[C@H](C)N[P@](=O)(OC[C@H]1O[C@@](C#N)(c2ccc3c(N)ncnn23)[C@H](O)[C@@H]1O)Oc1ccccc1 [Remdesivir] |  |  |  | FLuc activity (internal control) (SARS-CoV-2 RdRp; HEK293T): maintained; inhibition at 6.7 µM (SARS-CoV-2 RdRp; HEK-293T, max. dose 6.7 μM, HEK293T, 15 h): 71%
